Assay results taken from patent US6028195A, “Piperazine derivatives and process for the preparation thereof” (Samjin Pharmaceutical Co., Ltd., priority 1996, dated 2000).
Values after ≈ are worked out from the molar mass of the structure shown. Like-named read-outs stand apart in the source and are kept apart here.

Experiments:
[1] = tested on: A549 (human non-small lung cell); assay: SRB assay, in vitro antitumor effect against A549; assay type: cell-based; settings: Homo sapiens
In short: (§1)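 Read-out is OD at 520 nm after sulforhodamine B staining of TCA-fixed cells, following 48 h drug exposure (DMSO kept under 0.5%). Values compare treated (T), untreated (C) and time-zero (Tz) wells, giving growth inhibition above Tz and net killing below it.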

[2] = tested on: XF 498 (human CNS); assay: SRB assay, in vitro antitumor effect against XF 498; assay type: cell-based; settings: Homo sapiens, XF498; XF-498, 48 hours; read-out: ED50 (the source's name)
In short: as §1

[3] = tested on: mouse leukemia P388 cells; assay: In vivo antitumor effects against mouse leukemia P388 cells in BDF1 mice; settings: P388, ip, abdominal cavity
Procedure: In vivo antitumor effects against mouse leukemia P388 cells.
1) Leukemia P388 cells being transfer-cultured successively in DBA/2 mouse, were grafted into each mouse of a group comprising 8 mice of 6 week old BDF1 mouse with the dose of 1×10^6 cells/0.1 ml. […]
3) With observation everyday, survival times of tested mice were measured. Antitumor activities was determined in such a manner that the increasing ratio(T/C%) of average survival days of drug-treated groups compared with the control group was calculated using the mean survival times of each tested groups.

[4] = Acute toxicity test (LD50), Litchfield-Wilcoxon method; settings: mouse, in vivo, ip, male ICR mice, 14 days
Procedure: Acute toxicity test (LD50): Litchfield-Wilcoxon method.
6 weeks old ICR mice(male 30±2.0 g) were fed freely with solid feed and water at room temperature, 23±1° C. and at humidity 60±5%. Sample drugs were injected into the abdominal cavities of mice, while each group comprises 6 mice. Observed during 14 days, external appearances and life or dead were recorded, and then, visible pathogenies were observed from dead animals by dissection. LD50 value was calculated by Litchfiled-wilcoxon method.

[5] = tested on: SKMEL-2 (human melanoma); assay: SRB assay, in vitro antitumor effect against SKMEL-2; assay type: cell-based; settings: Homo sapiens; SK-MEL-2, 48 hours; read-out: ED50 (the source's name)
In short: as §1

[6] = tested on: HCT-15 (human colon); assay: SRB assay, in vitro antitumor effect against HCT-15; assay type: cell-based; settings: Homo sapiens; HCT 15, 48 hours; read-out: ED50 (the source's name)
In short: as §1

[7] = tested on: SKOV-3 (human ovarian); assay: SRB assay, in vitro antitumor effect against SKOV-3; assay type: cell-based; settings: Homo sapiens; SK-OV-3, 48 hours; read-out: ED50 (the source's name)
In short: as §1

[8] = A549, 48 hours, read-out: ED50 (the source's name)
[9] = nine everyday, read-out: T/C(%)
[10] = on days 1, 5, 9, read-out: T/C(%)
[11] = on days 1, 4, 8, read-out: T/C(%)

C=Cc1cc(NC(=O)N2CCN(c3cc(OC)cc(OC)c3)CC2)c(OC)nc1C [Example 73, 1-[(2-Methoxy-6-methyl-5-vinylpyridin-3-yl)aminocarbonyl]-4-(3,5-dimethoxyphenyl)piperazine]
IC50 [1, 8]: 0.01 µg/mL (≈ 0.0242 µM)
IC50 [2]: 0.013 µg/mL (≈ 0.0315 µM)
response vs control in vivo at 10 mg/kg [3, 9]: 140%
response vs control in vivo at 25 mg/kg [3, 9]: 150%
response vs control in vivo at 50 mg/kg [3, 9]: 180%
LD50 at 336 h [4]: 250 mg/kg
IC50 [5]: 0.02 µg/mL (≈ 0.0485 µM)
IC50 [6]: 0.012 µg/mL (≈ 0.0291 µM)
IC50 [7]: 0.0054 µg/mL (≈ 0.0131 µM)

C=Cc1cc(NC(=O)N2CCN(c3cc(C)cc(C)c3)CC2)c(OC)nc1C [Example 74, 1-[(2-Methoxy-6-methyl-5-vinylpyridin-3-yl)aminocarbonyl]-4-(3,5-dimethylphenyl)piperazine]
IC50 [1, 8]: 0.016 µg/mL (≈ 0.0421 µM)
IC50 [2]: 0.026 µg/mL (≈ 0.0683 µM)
response vs control in vivo at 10 mg/kg [3, 9]: 140%
response vs control in vivo at 25 mg/kg [3, 9]: 150%
response vs control in vivo at 50 mg/kg [3, 9]: 250%
LD50 at 336 h [4]: 361 mg/kg
IC50 [5]: 0.02 µg/mL (≈ 0.0526 µM)
IC50 [6]: 0.021 µg/mL (≈ 0.0552 µM)
IC50 [7]: 0.0138 µg/mL (≈ 0.0363 µM)

COc1cc(OC)cc(N2CCN(C(=O)Nc3cc4ccccc4nc3OC)CC2)c1 [Example 81, 1-[(2-Methoxyquinolin-3-yl)aminocarbonyl]-4-(3,5-dimethoxyphenyl)piperazine]
IC50 ([1]; A549, 48 h, read-out: ED50): 0.0032 µg/mL (≈ 0.00757 µM)
IC50 [2]: 0.0097 µg/mL (≈ 0.023 µM)
response vs control in vivo at 10 mg/kg [3, 9]: 140%
response vs control in vivo at 25 mg/kg [3, 9]: 140%
response vs control in vivo at 50 mg/kg [3, 9]: 210%
response vs control in vivo at 50 mg/kg [3, 10]: 127%
response vs control in vivo at 100 mg/kg [3, 10]: 146%
response vs control in vivo at 200 mg/kg [3, 10]: 218%
LD50 at 336 h [4]: 1600 mg/kg
IC50 [5]: 0.0107 µg/mL (≈ 0.0253 µM)
IC50 [6]: 0.0054 µg/mL (≈ 0.0128 µM)
IC50 [7]: 0.0007 µg/mL (≈ 0.00166 µM)

COc1nc2ccccc2cc1NC(=O)N1CCN(c2cc(C)cc(C)c2)CC1 [Example 82, 1-[(2-Methoxyquinolin-3-yl)aminocarbonyl]-4-(3,5-dimethylphenyl)piperazine]
IC50 [1, 8]: 0.0676 µg/mL (≈ 0.173 µM)
IC50 [2]: 0.0479 µg/mL (≈ 0.123 µM)
response vs control in vivo at 50 mg/kg [3, 10]: 100%
response vs control in vivo at 100 mg/kg [3, 10]: 127%
LD50 at 336 h [4]: 700 mg/kg
IC50 [5]: 0.0754 µg/mL (≈ 0.193 µM)
IC50 [6]: 0.0346 µg/mL (≈ 0.0886 µM)
IC50 [7]: 0.0249 µg/mL (≈ 0.0638 µM)

COc1cc(C)c(C)cc1NC(=O)N1CCN(c2cc(C)cc(C)c2)CC1 [Example 172, 1-[(4,5-Dimethyl-2-methoxyphenyl)aminocarbonyl]-4-(3,5-dimethylphenyl)piperazine]
IC50 [1, 8]: 0.0047 µg/mL (≈ 0.0128 µM)
IC50 [2]: 0.0086 µg/mL (≈ 0.0234 µM)
response vs control in vivo at 50 mg/kg [3, 11]: 118%
response vs control in vivo at 100 mg/kg [3, 11]: 127%
response vs control in vivo at 200 mg/kg [3, 11]: 191%
LD50 at 336 h [4]: 723 mg/kg
IC50 [5]: 0.0233 µg/mL (≈ 0.0634 µM)
IC50 [6]: 0.018 µg/mL (≈ 0.049 µM)
IC50 [7]: 0.0097 µg/mL (≈ 0.0264 µM)
